Legend:
Type in all cases: in vivo
[1] = system: blackgrass (Alopecurus myosuroides); experiment: Test C preemergence, plant response rating; settings: Alopecurus myosuroides, pre-emergence, Preemergence
Procedure, shortened: (§1)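 Greenhouse plants rated visually against untreated controls 13–15 d after treatment, scale 0 = no effect to 100 = complete control. Postemergence sprays went onto potted plants 2–18 cm tall (1–4 leaves); preemergence sprays onto soil freshly sown in loam–sand or silt loam, chemicals formulated in non-phytotoxic solvent with surfactant.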

[2] = system: lambsquarters (Chenopodium album); experiment: Test C preemergence, plant response rating; settings: Chenopodium album, pre-emergence, Preemergence
Procedure, shortened: as §1

corn (Zea mays) [3] = experiment: Test C preemergence, plant response rating; settings: Zea mays, pre-emergence, Preemergence
Procedure, shortened: as §1

soybean (Glycine max) [4] = experiment: Test C preemergence, plant response rating; settings: Glycine max, pre-emergence, Preemergence
Procedure, shortened: as §1

[5] = system: waterhemp (common waterhemp, Amaranthus rudis); experiment: Test C preemergence, plant response rating; settings: Amaranthus tuberculatus, pre-emergence, Preemergence
Procedure, shortened: as §1

[6] = system: wheat (winter wheat, Triticum aestivum); experiment: Test C preemergence, plant response rating; settings: Triticum aestivum, pre-emergence, Preemergence
Procedure, shortened: as §1

[7] = system: morningglory (Ipomoea coccinea); experiment: Test C preemergence, plant response rating; settings: Ipomoea, pre-emergence, Preemergence
Procedure, shortened: as §1

[8] = system: velvetleaf (Abutilon theophrasti); experiment: Test C preemergence, plant response rating; settings: Abutilon theophrasti, pre-emergence, Preemergence
Procedure, shortened: as §1

[9] = system: ryegrass, Italian (Italian ryegrass, Lolium multiflorum); experiment: Test C preemergence, plant response rating; settings: Lolium multiflorum, pre-emergence, Preemergence
Procedure, shortened: as §1

[10] = system: crabgrass, large (large crabgrass, Digitaria sanguinalis); experiment: Test C preemergence, plant response rating; settings: Digitaria sanguinalis, pre-emergence, Preemergence
Procedure, shortened: as §1

[11] = system: oilseed rape (Brassica napus); experiment: Test C preemergence, plant response rating; settings: Brassica napus, pre-emergence, Preemergence
Procedure, shortened: as §1

[12] = system: nutsedge, yellow (yellow nutsedge, Cyperus esculentus); experiment: Test C preemergence, plant response rating; settings: Cyperus, pre-emergence, Preemergence
Procedure, shortened: as §1

[13] = system: foxtail, giant (giant foxtail, Setaria faberii); experiment: Test C preemergence, plant response rating; settings: Setaria faberi, pre-emergence, Preemergence
Procedure, shortened: as §1

corn (Zea mays) [14] = experiment: Test C postemergence, plant response rating; settings: Zea mays, post-emergence
Procedure, shortened: as §1

soybean (Glycine max) [15] = experiment: Test C postemergence, plant response rating; settings: Glycine max, post-emergence
Procedure, shortened: as §1

[16] = system: waterhemp (common waterhemp, Amaranthus rudis); experiment: Test C postemergence, plant response rating; settings: for Plant response rating, Waterhemp: scale 0 to 100; for Waterhemp plant response rating: scale 0 to 100 (0 no effect, 100 complete control)
Procedure, shortened: as §1

[17] = system: crabgrass, large (large crabgrass, Digitaria sanguinalis); experiment: Test C postemergence, plant response rating; settings: Digitaria sanguinalis, post-emergence
Procedure, shortened: as §1

[18] = system: galium (catchweed bedstraw, Galium aparine); experiment: Test C postemergence, plant response rating; settings: Galium, post-emergence
Procedure, shortened: as §1

[19] = system: oilseed rape (Brassica napus); experiment: Test C postemergence, plant response rating; settings: Brassica napus, post-emergence
Procedure, shortened: as §1

kochia (Kochia scoparia) = experiment: Test C postemergence, plant response rating; settings: Bassia scoparia, post-emergence
Procedure, shortened: as §1

[20] = system: foxtail, giant (giant foxtail, Setaria faberii); experiment: Test C postemergence, plant response rating; settings: Setaria faberi, post-emergence
Procedure, shortened: as §1

[21] = 62 g ai/ha, scale 0 to 100 (0 no effect, 100 complete control)
[22] = 125 g ai/ha, scale 0 to 100 (0 no effect, 100 complete control)

C=CCCOC(=O)c1c(Br)cccc1Oc1ncc(Cl)cn1 [Compound 21, 3-buten-1-yl 2-bromo-6-[(5-chloro-2-pyrimidinyl)oxy]benzoate]
pest or weed control at 62 g/ha ([1]; 62 g ai/ha, scale of 0 to 100): 55% | pest or weed control at 125 g/ha ([1]; 125 g ai/ha, scale of 0 to 100): 90% | pest or weed control at 16 g/ha ([1]; 16 g ai/ha, scale 0 to 100): 5% | pest or weed control at 31 g/ha ([1]; 31 g ai/ha, scale 0 to 100): 35% | pest or weed control at 125 g/ha ([2]; 125 g ai/ha, scale of 0 to 100): 70% | pest or weed control at 16 g/ha ([2]; 16 g ai/ha, scale 0 to 100): 0% | pest or weed control at 31 g/ha ([2]; 31 g ai/ha, scale 0 to 100): 30% | pest or weed control at 62 g/ha ([2]; 62 g ai/ha, scale 0 to 100): 25% | Corn plant response rating (crop injury, 0 = no effect, 100 = complete kill) at 62 g/ha (corn (Zea mays) [3]; 62 g ai/ha, scale of 0 to 100): 5% | Corn plant response rating (crop injury, 0 = no effect, 100 = complete kill) at 125 g/ha (corn (Zea mays) [3]; 125 g ai/ha, scale of 0 to 100): 20% | Corn plant response rating (crop injury, 0 = no effect, 100 = complete kill) at 16 g/ha (corn (Zea mays) [3]; 16 g ai/ha, scale 0 to 100): 0% | Corn plant response rating (crop injury, 0 = no effect, 100 = complete kill) at 31 g/ha (corn (Zea mays) [3]; 31 g ai/ha, scale 0 to 100): 0% | plant injury at 125 g/ha (soybean (Glycine max) [4]; 125 g ai/ha, scale of 0 to 100): 0% | plant injury at 16 g/ha (soybean (Glycine max) [4]; 16 g ai/ha, scale 0 to 100): 0% | plant injury at 31 g/ha (soybean (Glycine max) [4]; 31 g ai/ha, scale 0 to 100): 0% | plant injury at 62 g/ha (soybean (Glycine max) [4]; 62 g ai/ha, scale 0 to 100): 0% | pest or weed control at 125 g/ha ([5]; 125 g ai/ha, scale of 0 to 100): 98% | pest or weed control at 16 g/ha ([5]; 16 g ai/ha, scale 0 to 100): 70% | pest or weed control at 31 g/ha ([5]; 31 g ai/ha, scale 0 to 100): 75% | pest or weed control at 62 g/ha ([5]; 62 g ai/ha, scale 0 to 100): 95% | plant injury at 125 g/ha ([6]; 125 g ai/ha, scale of 0 to 100): 0% | plant injury at 16 g/ha ([6]; 16 g ai/ha, scale 0 to 100): 0% | plant injury at 31 g/ha ([6]; 31 g ai/ha, scale 0 to 100): 0% | plant injury at 62 g/ha ([6]; 62 g ai/ha, scale 0 to 100): 0% | pest or weed control at 125 g/ha ([7]; 125 g ai/ha, scale of 0 to 100): 10% | pest or weed control at 16 g/ha ([7]; 16 g ai/ha, scale 0 to 100): 0% | pest or weed control at 31 g/ha ([7]; 31 g ai/ha, scale 0 to 100): 0% | pest or weed control at 62 g/ha ([7]; 62 g ai/ha, scale 0 to 100): 5% | pest or weed control at 125 g/ha ([8]; 125 g ai/ha, scale of 0 to 100): 100% | pest or weed control at 16 g/ha ([8]; 16 g ai/ha, scale 0 to 100): 10% | pest or weed control at 31 g/ha ([8]; 31 g ai/ha, scale 0 to 100): 40% | pest or weed control at 62 g/ha ([8]; 62 g ai/ha, scale 0 to 100): 70% | pest or weed control at 125 g/ha ([9]; 125 g ai/ha, scale of 0 to 100): 90% | pest or weed control at 16 g/ha ([9]; 16 g ai/ha, scale 0 to 100): 0% | pest or weed control at 31 g/ha ([9]; 31 g ai/ha, scale 0 to 100): 10% | pest or weed control at 62 g/ha ([9]; 62 g ai/ha, scale 0 to 100): 15% | pest or weed control at 62 g/ha ([10]; 62 g ai/ha, scale of 0 to 100): 98% | pest or weed control at 125 g/ha ([10]; 125 g ai/ha, scale of 0 to 100): 100% | pest or weed control at 16 g/ha ([10]; 16 g ai/ha, scale 0 to 100): 20% | pest or weed control at 31 g/ha ([10]; 31 g ai/ha, scale 0 to 100): 75% | plant injury at 125 g/ha ([11]; 125 g ai/ha, scale of 0 to 100): 100% | plant injury at 16 g/ha ([11]; 16 g ai/ha, scale 0 to 100): 0% | plant injury at 31 g/ha ([11]; 31 g ai/ha, scale 0 to 100): 0% | plant injury at 62 g/ha ([11]; 62 g ai/ha, scale 0 to 100): 75% | pest or weed control at 125 g/ha ([12]; 125 g ai/ha, scale of 0 to 100): 0% | pest or weed control at 16 g/ha ([12]; 16 g ai/ha, scale 0 to 100): 0% | pest or weed control at 31 g/ha ([12]; 31 g ai/ha, scale 0 to 100): 0% | pest or weed control at 62 g/ha ([12]; 62 g ai/ha, scale 0 to 100): 0% | pest or weed control at 62 g/ha ([13]; 62 g ai/ha, scale of 0 to 100): 95% | pest or weed control at 125 g/ha ([13]; 125 g ai/ha, scale of 0 to 100): 90% | pest or weed control at 16 g/ha ([13]; 16 g ai/ha, scale 0 to 100): 20% | pest or weed control at 31 g/ha ([13]; 31 g ai/ha, scale 0 to 100): 80% | Corn plant response rating (crop injury, 0 = no effect, 100 = complete kill) at 16 g/ha (corn (Zea mays) [14]; 16 g ai/ha, scale 0 to 100): 5% | Corn plant response rating (crop injury, 0 = no effect, 100 = complete kill) at 31 g/ha (corn (Zea mays) [14]; 31 g ai/ha, scale 0 to 100): 5% | plant injury at 62 g/ha (corn (Zea mays) [14]; [21]): 15% | plant injury at 125 g/ha (corn (Zea mays) [14]; [22]): 20% | plant injury at 16 g/ha (soybean (Glycine max) [15]; 16 g ai/ha, scale 0 to 100): 30% | plant injury at 31 g/ha (soybean (Glycine max) [15]; 31 g ai/ha, scale 0 to 100): 40% | plant injury at 62 g/ha (soybean (Glycine max) [15]; [21]): 60% | plant injury at 125 g/ha (soybean (Glycine max) [15]; [22]): 60% | Plant response rating, Waterhemp ([16]; 16 g ai/ha): 75 | Plant response rating, Waterhemp ([16]; 31 g ai/ha): 85 | Waterhemp plant response rating ([16]; 62 g ai/ha): 90 | Waterhemp plant response rating ([16]; 125 g ai/ha): 85 | pest or weed control at 16 g/ha ([17]; 16 g ai/ha, scale 0 to 100): 10% | pest or weed control at 31 g/ha ([17]; 31 g ai/ha, scale 0 to 100): 20% | pest or weed control at 62 g/ha [17, 21]: 25% | pest or weed control at 125 g/ha [17, 22]: 35% | pest or weed control at 16 g/ha ([18]; 16 g ai/ha, scale 0 to 100): 55% | pest or weed control at 31 g/ha ([18]; 31 g ai/ha, scale 0 to 100): 80% | pest or weed control at 62 g/ha [18, 21]: 75% | pest or weed control at 125 g/ha [18, 22]: 80% | plant injury at 16 g/ha ([19]; 16 g ai/ha, scale 0 to 100): 30% | plant injury at 31 g/ha ([19]; 31 g ai/ha, scale 0 to 100): 40% | plant injury at 62 g/ha [19, 21]: 50% | plant injury at 125 g/ha [19, 22]: 30% | pest or weed control at 16 g/ha (kochia (Kochia scoparia); 16 g ai/ha, scale 0 to 100): 60% | pest or weed control at 31 g/ha (kochia (Kochia scoparia); 31 g ai/ha, scale 0 to 100): 50% | pest or weed control at 62 g/ha (kochia (Kochia scoparia); [21]): 90% | pest or weed control at 125 g/ha (kochia (Kochia scoparia); [22]): 90% | pest or weed control at 16 g/ha ([20]; 16 g ai/ha, scale 0 to 100): 10% | pest or weed control at 31 g/ha ([20]; 31 g ai/ha, scale 0 to 100): 10% | pest or weed control at 62 g/ha [20, 21]: 20% | pest or weed control at 125 g/ha [20, 22]: 15%

Reference: patent US11053204B2, “Pyrimidinyloxy benzene derivatives as herbicides” (FMC Corporation, priority 2015, dated 2021)
